Structures can show the parent of a compound that is named as a salt.
How the values were obtained:
[1] = tested on: iron loaded Cebus apella monkey; details: Cebus apella monkey screen, DFOM subcutaneous (Bergeron et al. 1993; Peter et al. 1994); cited from earlier work
[2] = typical, parenteral therapy; cited from earlier work
[3] = Impact of IV chelator on blood pressure and heart rate in normotensive rats; type: in vivo, Sprague Dawley rats
Procedure: Owing to the profound impact that DFO administered IV can have on blood pressure and cardiac function (Whitten, D. F.; Gibson, G. W.; Good, M. H.; Goodwin, J. F.; Brough, A. J. Studies in Acute Iron Poisoning. I. Desferrioxamine in the Treatment of Acute Iron Poisoning: Clinical Observations, Experimental Studies, and Theoretical Considerations. Pediatrics 1965, 36, 322-335), the manufacter recommends that the drug be given by this route at doses not to exceed 15 mg/kg/h (22 μmol/kg/h). In addition, patients suffering from acute iron toxicity should be given DFO IV only under circumstances of cardiovascular collapse, and even then at doses not to exceed 15 mg/kg/h for the first 1000 mg. Subject IV dosing, if needed, must be at a slower rate not to exceed 125 mg/h. Upon consideration of this, this example compares the impact of DFO and NaHBED administered IV on blood pressure and heart rate in normotensive rodents. The chelators were administered at a dose of 300 μmol/kg in a 0.5-ml volume either by IV bolus (n=5 for both drugs) or by IV infusion over a 20-min period (n=5 for NaHBED, n=4 for DFO) in accordance with the following procedure.
The basic procedure has been described in an earlier publication (Bergeron, R. J.; Wiegand, J.; Sninsky, C. A.; Katovich, M. J. The Impact of Polyamine Analogues on the Blood Pressure of Normotensive and Hypertensive Rats. Clin. Exp. Hypertension 1995, 17, 1197-1217). Briefly, normotensive adult male Sprague Dawley rats (400 g) were anesthetized with sodium pentobarbital (55 mg/kg IP). After the neck and shoulder areas were prepared for surgery, an incision was made into the neck area. The proximal end of the carotid artery was tied off with 3-0 silk; the other end was clamped. Once a piece of PE-50 tubing was inserted approximately 3 cm into the artery and tied into place; the tubing was skin tunneled to the shoulder area. The jugular vein was cannulated using a similar procedure. Both of the tubings were flushed with heparin (100 U/ml); a stylet was inserted.
Approximately 24 h after the surgery, the animals were placed into individual cages and were connected to a blood pressure transducer (ADInstrurnents, Inc., Milford, MA) via the carotid catheter. […]
After a ½-h stabilization period, 0.5 ml of saline was administered as an IV bolus via the jugular vein catheter, and the blood pressure and heart rate were monitored for 5 min. […] The blood pressure and heart rate readings were taken for 1 h post-drug, during which the animals were unrestrained.
Rats receiving the drug as a 20-min IV infusion (n=5 for HBED, n=4 for DFO) were allowed to acclimate as above. […] Blood pressure and heart rate were monitored during the infusion and for one hour thereafter.

[4] = IV bolus, conscious rats, 200-300 mg/kg
[5] = tested on: iron loaded Cebus apella monkey; experiment: Iron-balance study (iron clearing efficiency) in iron-loaded Cebus apella monkeys
Procedure: After intramuscular anesthesia with ketamine, an intravenous infusion is started in a leg vein. […] Two to three infusions, separated by between 10 and 14 days, may be necessary to provide about 500 mg iron per Kg body weight. […] At least twenty half-lives, sixty days, passes before using any of the animals in experiments evaluating iron-chelating agents.
Seven days before the administration of the drug, the animals are placed in metabolic cages and started on a low-iron liquid diet. The monkeys are maintained on the low-iron liquid diet for the duration of the experiment. They are given food according to their body weight, and intake is very carefully monitored.
Three days prior to drug administration, day −2 to day 0, baseline iron intake and output values are measured. This same measurement is made for day +1 to day +3. The total amount of iron intake is compared with the total amount of iron excreted.
Fecal and urine samples are collected at 24 hour intervals. The collections begin four days prior to the administration of the test drug and continue for an additional five days after the drug is given. Fecal samples are assayed for the presence of occult blood, weighed, and mixed with distilled deionized water prior to autoclaving for 30 minutes. The mixture is then freeze-dried, and a known portion of the powder is mixed with low-iron nitric acid and refluxed for 24 hours. Once any particulate matter in the digested samples is removed by centrifugation, iron concentrations are determined by flame atomic absorption. Monkey urine samples are acidified and reconstituted to initial volume after sterilization, if necessary.
The monosodium salt of HBED in distilled H2O was given to the monkeys intravenously (IV) at a single dose of 75 μmol/kg (34.6 mg/kg n=4).

[6] = given orally to human patients; cited from earlier work
[7] = 300 μmol/kg, 20-min IV infusion
[8] = IV push, single dose 75 μmol/kg

CC(=O)N(O)CCCCCNC(=O)CCC(=O)N(O)CCCCCNC(=O)CCC(=O)N(O)CCCCCN [DFO, deferoxamine B]
activity compared with HBED or its dimethyl ester given orally [1]: significantly higher activity
share of the compound administered that binds iron [2]: ≤ 5%

O=C(O)CN(CCN(CC(=O)O)Cc1ccccc1O)Cc1ccccc1O [HBED monosodium salt, N,N′-bis(2-hydroxybenzyl)-ethylenediamine-N,N′-diacetic acid]
effect on blood pressure ([3]; 300 μmol/kg IV bolus): no effect
effect on heart rate ([3]; 300 μmol/kg IV bolus): no effect
effect on blood pressure [3, 7]: no effect
effect on heart rate [3, 7]: no effect
side-effects [4]: no apparent side-effects
net iron excretion relative to similar doses of subcutaneous DFOM ([5]; IV push 75 μmol/kg vs subcutaneous DFOM): nearly three times
share of excreted iron in the stool [5, 8]: 70%
share of excreted iron in the urine [5, 8]: 30%

O=C(O)CN(CCN(CC(=O)O)Cc1ccccc1O)Cc1ccccc1O [HBED, N,N′-bis(2-hydroxybenzyl)-ethylenediamine-N,N′-diacetic acid]
iron excretion level [6]: ineffective for the treatment of iron overload

— patent US20010039295A1, “N,N'-bis(2-hydroxybenzyl)-ethylenediamine-N,N'-diacetic acid in iron chelating therapy” (priority 1999, published 2001)
